Source: PubChem BioAssay AID1963874 (Molecular Pharmacology Branch, DTP, NCI, 2024)

Tested on: 253994-281-T-J1-PDC KRAS-mutant spheroids with HUVEC/MSC, viability
Assay: Anticancer human tumor 253994-281-T-J1-PDC patient-derived colorectal carcinoma cell line growth inhibition [KRAS2]
Conditions: for viability, T/C: stronger effect = lower value
Method in brief: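 KRAS-mutant tumor cells were grown as spheroids with HUVEC endothelial cells and human MSCs as stroma. Targeted agents were tested alone and with KRAS pathway inhibitors. Doses started at or near clinical Cmax, or 10 microM, descending half-log.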

[1] = curve of first compound, second compound 0.1 µM
[2] = curve of first compound, second compound 0.316 µM
[3] = curve of first compound, second compound 1 µM
[4] = curve of first compound, second compound 3.16 µM
[5] = curve of first compound, second compound 10 µM
[6] = second compound 0.1 µM, first compound 0.0316 µM
[7] = second compound 0.1 µM, first compound 0.1 µM
[8] = second compound 0.1 µM, first compound 0.316 µM
[9] = second compound 0.1 µM, first compound 1 µM
[10] = second compound 0.1 µM, first compound 3.16 µM
[11] = second compound 0.1 µM, first compound 10 µM
[12] = second compound 0.316 µM, first compound 0.0316 µM
[13] = second compound 0.316 µM, first compound 0.1 µM
[14] = second compound 0.316 µM, first compound 0.316 µM
[15] = second compound 0.316 µM, first compound 1 µM
[16] = second compound 0.316 µM, first compound 3.16 µM
[17] = second compound 0.316 µM, first compound 10 µM
[18] = second compound 1 µM, first compound 0.0316 µM
[19] = second compound 1 µM, first compound 0.1 µM
[20] = second compound 1 µM, first compound 0.316 µM
[21] = second compound 1 µM, first compound 1 µM
[22] = second compound 1 µM, first compound 3.16 µM
[23] = second compound 1 µM, first compound 10 µM
[24] = second compound 3.16 µM, first compound 0.0316 µM
[25] = second compound 3.16 µM, first compound 0.1 µM
[26] = second compound 3.16 µM, first compound 0.316 µM
[27] = second compound 3.16 µM, first compound 1 µM
[28] = second compound 3.16 µM, first compound 3.16 µM
[29] = second compound 3.16 µM, first compound 10 µM
[30] = second compound 10 µM, first compound 0.0316 µM
[31] = second compound 10 µM, first compound 0.1 µM
[32] = second compound 10 µM, first compound 0.316 µM
[33] = second compound 10 µM, first compound 1 µM
[34] = second compound 10 µM, first compound 3.16 µM
[35] = second compound 10 µM, first compound 10 µM
[36] = second compound 0.1 µM, first compound 0.000316 µM
[37] = second compound 0.1 µM, first compound 0.001 µM
[38] = second compound 0.1 µM, first compound 0.00316 µM
[39] = second compound 0.1 µM, first compound 0.01 µM
[40] = second compound 0.316 µM, first compound 0.000316 µM
[41] = second compound 0.316 µM, first compound 0.001 µM
[42] = second compound 0.316 µM, first compound 0.00316 µM
[43] = second compound 0.316 µM, first compound 0.01 µM
[44] = second compound 1 µM, first compound 0.000316 µM
[45] = second compound 1 µM, first compound 0.001 µM
[46] = second compound 1 µM, first compound 0.00316 µM
[47] = second compound 1 µM, first compound 0.01 µM
[48] = second compound 3.16 µM, first compound 0.000316 µM
[49] = second compound 3.16 µM, first compound 0.001 µM
[50] = second compound 3.16 µM, first compound 0.00316 µM
[51] = second compound 3.16 µM, first compound 0.01 µM
[52] = second compound 10 µM, first compound 0.000316 µM
[53] = second compound 10 µM, first compound 0.001 µM
[54] = second compound 10 µM, first compound 0.00316 µM
[55] = second compound 10 µM, first compound 0.01 µM
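Note: spheroids exposed to agents for seven days before readout.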
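Throughout, for viability, T/C: percent of DMSO vehicle control viability.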

COc1cc2nccc(Oc3ccc(NC(=O)C4(C(=O)Nc5ccc(F)cc5)CC4)cc3)c2cc1OC + COc1cc2nc(C)nc(NC(C)c3cc(N)cc(C(F)(F)F)c3)c2cc1OC1CCOC1
IC50 [1]: > 10000 nM
IC50 [2]: > 10000 nM
IC50 [3]: 5930 nM
IC50 [4]: 4910 nM
IC50 [5]: 5180 nM
viability, T/C [6]: 99.1%
viability, T/C [7]: 101%
viability, T/C [8]: 118%
viability, T/C [9]: 89.4%
viability, T/C [10]: 87.6%
viability, T/C [11]: 52.2%
viability, T/C [12]: 106%
viability, T/C [13]: 110%
viability, T/C [14]: 113%
viability, T/C [15]: 109%
viability, T/C [16]: 92.2%
viability, T/C [17]: 59.3%
viability, T/C [18]: 101%
viability, T/C [19]: 106%
viability, T/C [20]: 101%
viability, T/C [21]: 92.5%
viability, T/C [22]: 76.4%
viability, T/C [23]: 28.3%
viability, T/C [24]: 99.6%
viability, T/C [25]: 97.3%
viability, T/C [26]: 109%
viability, T/C [27]: 104%
viability, T/C [28]: 70.2%
viability, T/C [29]: 17.7%
viability, T/C [30]: 93.8%
viability, T/C [31]: 89.1%
viability, T/C [32]: 86.5%
viability, T/C [33]: 82.3%
viability, T/C [34]: 81.7%
viability, T/C [35]: 7.51%

CC(=O)Nc1cccc(-n2c(=O)n(C3CC3)c(=O)c3c(Nc4ccc(I)cc4F)n(C)c(=O)c(C)c32)c1 + C=CC(=O)N1CCN(c2nc(=O)n(-c3c(C)ccnc3C(C)C)c3nc(-c4c(O)cccc4F)c(F)cc23)C(C)C1
IC50 [1]: 1.2 nM
IC50 [2]: 1.03 nM
IC50 [3]: 1.5 nM
IC50 [4]: 1.97 nM
IC50 [5]: 1.07 nM
viability, T/C (second compound 0.1 µM, first compound 0.0001 µM): 106%
viability, T/C [36]: 91.9%
viability, T/C [37]: 47%
viability, T/C [38]: 31.8%
viability, T/C [39]: 18.2%
viability, T/C [6]: 5.7%
viability, T/C (second compound 0.316 µM, first compound 0.0001 µM): 124%
viability, T/C [40]: 77.7%
viability, T/C [41]: 54.3%
viability, T/C [42]: 28.4%
viability, T/C [43]: 17.4%
viability, T/C [12]: 7.2%
viability, T/C (second compound 1 µM, first compound 0.0001 µM): 96.2%
viability, T/C [44]: 91.5%
viability, T/C [45]: 57.7%
viability, T/C [46]: 31.3%
viability, T/C [47]: 15.5%
viability, T/C [18]: 6.85%
viability, T/C (second compound 3.16 µM, first compound 0.0001 µM): 101%
viability, T/C [48]: 91.6%
viability, T/C [49]: 69.2%
viability, T/C [50]: 36.4%
viability, T/C [51]: 16.1%
viability, T/C [24]: 6.84%
viability, T/C (second compound 10 µM, first compound 0.0001 µM): 95.8%
viability, T/C [52]: 84.4%
viability, T/C [53]: 51%
viability, T/C [54]: 22.4%
viability, T/C [55]: 16.2%
viability, T/C [30]: 7.46%

COc1cc2nccc(Oc3ccc(NC(=O)C4(C(=O)Nc5ccc(F)cc5)CC4)cc3)c2cc1OC
viability, T/C (compound 0.0316 µM): 99.7% [middle of 5 runs]
viability, T/C (compound 0.1 µM): 108% [middle of 5 runs]
viability, T/C (compound 0.316 µM): 92.9% [middle of 5 runs]
viability, T/C (compound 1 µM): 93.9% [middle of 5 runs]
viability, T/C (compound 3.16 µM): 89.8% [middle of 5 runs]
viability, T/C (compound 10 µM): 76.9% [middle of 5 runs]
IC50 (curve of compound): > 10000 nM

COc1cc(Nc2ncc3c(n2)-c2ccc(Cl)cc2C(c2c(F)cccc2OC)=NC3)ccc1C(=O)O + COc1cc2nc(C)nc(NC(C)c3cc(N)cc(C(F)(F)F)c3)c2cc1OC1CCOC1
IC50 [1]: < 31.6 nM
IC50 [2]: < 31.6 nM
IC50 [3]: < 31.6 nM
IC50 [4]: < 31.6 nM
IC50 [5]: < 31.6 nM
viability, T/C [6]: 63.4%
viability, T/C [7]: 29.7%
viability, T/C [8]: 26.6%
viability, T/C [9]: 35.2%
viability, T/C [10]: 39.9%
viability, T/C [11]: 38.6%
viability, T/C [12]: 51.4%
viability, T/C [13]: 26.8%
viability, T/C [14]: 26.5%
viability, T/C [15]: 33.1%
viability, T/C [16]: 35.2%
viability, T/C [17]: 33.6%
viability, T/C [18]: 49%
viability, T/C [19]: 34.3%
viability, T/C [20]: 22.4%
viability, T/C [21]: 27.5%
viability, T/C [22]: 31%
viability, T/C [23]: 34.5%
viability, T/C [24]: 50.1%
viability, T/C [25]: 30%
viability, T/C [26]: 26%
viability, T/C [27]: 29%
viability, T/C [28]: 41.7%
viability, T/C [29]: 45.1%
viability, T/C [30]: 38.3%
viability, T/C [31]: 31.4%
viability, T/C [32]: 25.7%
viability, T/C [33]: 31.6%
viability, T/C [34]: 35.7%
viability, T/C [35]: 29.1%

CC(C)n1nc(-c2ccc3oc(N)nc3c2)c2c(N)ncnc21 + CNCc1ccccc1-c1csc(C(C)Nc2nc(C)nc3cc(OC)c(OC)cc23)c1
IC50 [1]: > 100 nM
IC50 [2]: > 100 nM
IC50 [3]: > 100 nM
IC50 [4]: 0.316 nM
IC50 [5]: < 0.316 nM
viability, T/C [36]: 96.7%
viability, T/C [37]: 86.8%
viability, T/C [38]: 74.5%
viability, T/C [39]: 75.8%
viability, T/C [6]: 79.7%
viability, T/C [7]: 50.8%
viability, T/C [40]: 91%
viability, T/C [41]: 87.5%
viability, T/C [42]: 82.7%
viability, T/C [43]: 73.2%
viability, T/C [12]: 78.1%
viability, T/C [13]: 57%
viability, T/C [44]: 93.3%
viability, T/C [45]: 78%
viability, T/C [46]: 79.3%
viability, T/C [47]: 76.8%
viability, T/C [18]: 73.3%
viability, T/C [19]: 51%
viability, T/C [48]: 37.9%
viability, T/C [49]: 45.2%
viability, T/C [50]: 56.9%
viability, T/C [51]: 9.64%
viability, T/C [24]: 42.3%
viability, T/C [25]: 28.2%
viability, T/C [52]: 0.12%
viability, T/C [53]: 0.13%
viability, T/C [54]: 0.13%
viability, T/C [55]: 0.11%
viability, T/C [30]: 0.13%
viability, T/C [31]: 0.18%

Cn1nccc1Nc1nccc(-c2cc3c(s2)C(C)(C)N(CCN2CCOCC2)C3=O)n1 + CNCc1ccccc1-c1csc(C(C)Nc2nc(C)nc3cc(OC)c(OC)cc23)c1
IC50 [1]: 2140 nM
IC50 [2]: 1520 nM
IC50 [3]: 863 nM
IC50 [4]: < 31.6 nM
IC50 [5]: < 31.6 nM
viability, T/C [6]: 97.5%
viability, T/C [7]: 102%
viability, T/C [8]: 87.6%
viability, T/C [9]: 74.6%
viability, T/C [10]: 37.1%
viability, T/C [11]: 23.8%
viability, T/C [12]: 106%
viability, T/C [13]: 89.2%
viability, T/C [14]: 84%
viability, T/C [15]: 60.7%
viability, T/C [16]: 31.8%
viability, T/C [17]: 19.4%
viability, T/C [18]: 87.7%
viability, T/C [19]: 73.2%
viability, T/C [20]: 67.9%
viability, T/C [21]: 49.8%
viability, T/C [22]: 24%
viability, T/C [23]: 10%
viability, T/C [24]: 44.4%
viability, T/C [25]: 46.3%
viability, T/C [26]: 29.3%
viability, T/C [27]: 0.46%
viability, T/C [28]: 0.39%
viability, T/C [29]: 0.26%
viability, T/C [30]: 0.25%
viability, T/C [31]: 0.16%
viability, T/C [32]: 0.15%
viability, T/C [33]: 0.14%
viability, T/C [34]: 0.39%
viability, T/C [35]: 0.2%
